The source of these data is US10385108B2, “Peptide analogs of alpha-melanocyte stimulating hormone” (Genzyme Corporation, priority 2008, dated 2019).

Where “and” joins values, the source holds several entries; their conditions need not be identical. Equal values may be shown once. Where a SMILES comes first, the peptide text is derived from it. [ ]: non-standard residue; d: D form. Bounds are passed on as bounds.

One assay relates to C57BL/6 mice. As to the kind of experiment: MOG35-55 induced EAE model. The assay is classed as in vivo. The following applies: 2 mg/kg.
The test system of assay [1] is B16-F1 murine melanoma cells. As to the kind of experiment: Intracellular cAMP in B16-F1 melanoma cells. Format: cell-based. The following applies: for cAMP levels (in words): peptide at 1 μg/ml; for EC50: B16-F1 cells, 10^-4-10^-11 M, 30 min, IBMX. As to the method: B16-F1 (melanoma cell line) cells from American Type Culture Collection (Manassas, Va.) were seeded into flat bottom 96 well plates at 5×10^4/well and cultured overnight in DMEM (Cambrex, Walkersville, Md.) supplemented with 2 mM glutamine, antibiotics (100 U/ml penicillin and 100 […]) and 10% heat-inactivated fetal bovine serum (Invitrogen, Grand Island, N.Y.). […] Cells were lysed and intracellular cAMP levels were measured by an enzyme immunoassay kit (Amersham Biosciences, Piscataway, N.J.). Forskolin (Sigma, St. Louis, Mo.) at 100 μM served as positive controls.
cAMP levels in B16-F1 melanoma cells after treatment with native α-MSH, RI α-MSH, or a scrambled control peptide were examined. The […] melanoma cell line expresses a high number of MCR1 receptors (3000-4000 receptors/cell) compared with macrophages cell lines which express only 100-200 receptors/cell. Therefore we selected to examine the effect of the RI α-MSH treatment on the melanoma cell line. Murine melanoma B16-F1 cells were treated with native α-MSH, RI α-MSH, or control scrambled peptide at concentrations 1 pg/ml-1 μg/ml. After 30 min, cells were lysed and intracellular cAMP was measured by an enzyme immunoassay. […] However, a higher concentration of RI α-MSH (100 ng/ml) was necessary to increase cAMP compared with native α-MSH which increased cAMP at a 10 pg/ml concentration. This difference in concentration of peptide necessary to increase cAMP levels may be the result of the binding affinity to the MCR1 receptor.
Murine melanoma B16-F1 cells were treated with native α-MSH, RI α-MSH, scrambled peptide control, KPV, or alanine substituted peptides of RI α-MSH at 1 μg/ml (FIG. 7B). […] Peptides designated 810, 811, and 812 have alanine substitutions in the central core tetrapeptide sequence (D-Trp D-Arg D-Phe D-His region; AA 5-8) (variant disclosed in SEQ ID NO:2) proposed to be involved in native α-MSH binding to the melanocortin receptor and its biological activity. […] The residues in the core tetrapeptide (wrfh) (variant disclosed in SEQ ID NO:2) and to a lesser extent, the methionine 4 of RI-MSH are critical for binding to MC1R.
B16-F1 murine melanoma cells were cultured into 96 well plates 5×10^4 cells/well overnight in media with L-glutamine and pen/strep and FBS. Media was removed and new media with IBMX was added to the cells for 1 hr. Cells were then treated with RI α-MSH, or RI α-MSH peptide analogs (890, 891, 892, 893, 894 or 895). Cells were lysed after 30 min using a cAMP assay kit and supernatant were used in the assay. Forskolin at 10 μM served as positive controls.
Intracellular cAMP was measured using a cAMP competition Assay Kit (Amersham Biosciences). All cell lysate samples were diluted 1:100 for analysis.
Murine melanoma B16-F1 cells were treated with RI α-MSH, or RI α-MSH analogs (869, 872, 880, 878, 886 and 890-895) at a concentration range of 10^−4-10^−11 M. cAMP levels from cells treated with RI α-MSH, or RI α-MSH analogs. […] See FIG. 22 for graphical data and Table 2 for EC50 data.
A general note: cAMP levels reflect the balance of adenylyl cyclase and phosphodiesterase activity.

Another assay addresses MC1R (Homo sapiens, UniProt Q01726). In words: Competitive binding with 125I-NDP-MSH, HEK293 membrane preparations, MC1R.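 For all read-outs here: Read-out: receptor-bound radioligand retained by filtration and counted.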 The following applies: for Ki: Ki MC1R, competition with 125I-NDP-MSH.
A further assay deals with MC3R (Homo sapiens, UniProt P41968). In words: Competitive binding with 125I-NDP-MSH, HEK293 membrane preparations, MC3R.
Sequence of MC3R (P41968 whole entry): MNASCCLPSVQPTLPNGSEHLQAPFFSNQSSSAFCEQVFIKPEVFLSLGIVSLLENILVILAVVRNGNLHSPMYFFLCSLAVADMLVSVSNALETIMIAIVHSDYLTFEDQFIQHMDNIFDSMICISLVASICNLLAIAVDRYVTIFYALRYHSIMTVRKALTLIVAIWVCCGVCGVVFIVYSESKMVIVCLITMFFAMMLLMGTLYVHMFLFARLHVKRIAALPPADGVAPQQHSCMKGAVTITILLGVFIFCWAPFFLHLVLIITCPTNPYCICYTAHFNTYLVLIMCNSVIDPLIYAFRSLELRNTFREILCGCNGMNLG
Another assay concerns the target MC5R (Homo sapiens, UniProt P33032). In words: Competitive binding with 125I-NDP-MSH, HEK293 membrane preparations, MC5R. The following applies: Ki MC5R, competition with 125I-NDP-MSH; cells noted in μM.

Sequence of MC1R (Q01726 whole entry): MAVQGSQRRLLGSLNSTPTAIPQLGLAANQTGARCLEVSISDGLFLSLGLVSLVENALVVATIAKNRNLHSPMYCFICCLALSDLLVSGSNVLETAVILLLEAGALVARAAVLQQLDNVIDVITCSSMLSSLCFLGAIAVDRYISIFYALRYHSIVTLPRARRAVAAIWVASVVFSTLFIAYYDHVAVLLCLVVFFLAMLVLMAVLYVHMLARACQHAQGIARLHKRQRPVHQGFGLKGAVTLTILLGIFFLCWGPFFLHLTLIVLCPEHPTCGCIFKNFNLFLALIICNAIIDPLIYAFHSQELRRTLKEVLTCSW
Sequence of MC5R (P33032 whole entry): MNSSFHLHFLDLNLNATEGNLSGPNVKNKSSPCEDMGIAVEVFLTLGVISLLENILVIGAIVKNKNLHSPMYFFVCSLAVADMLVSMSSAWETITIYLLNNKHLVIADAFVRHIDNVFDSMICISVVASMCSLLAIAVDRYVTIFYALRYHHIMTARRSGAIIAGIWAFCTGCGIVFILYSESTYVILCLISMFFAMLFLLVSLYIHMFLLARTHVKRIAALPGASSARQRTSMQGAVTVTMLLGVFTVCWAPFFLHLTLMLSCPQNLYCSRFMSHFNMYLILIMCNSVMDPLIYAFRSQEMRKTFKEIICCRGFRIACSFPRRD
Protocol for MC1R: (§1) Binding analysis was done by Cerep laboratories (Paris, France) with coded samples.
(§2) The mixtures were filtered through 96-well GFC filters (Millipore, Billerica, Mass.), washed 3 times with binding buffer without BSA, dried and counted.
(§3) A competitive binding assay using a MCR panel including MCR 1, 3, 4, and 5 was performed.
Protocol for MC3R: as §1, §2, §3
Protocol for MC5R: as §1, §2, §3

Take `C[C@@H]1C[C@H]2[C@@H]3CCC4=CC(=O)C=C[C@]4(C)[C@@]3(F)[C@@H](O)C[C@]2(C)[C@@]1(O)C(=O)CO` [Dexamethasone, dexamethasone, reference compound]: the “maximum percent incidence of disease” value in the assay with C57BL/6 mice was found to be 40%.
Turning to `C=C[C@@]1(C)CC(=O)[C@]2(O)[C@@]3(C)[C@@H](O)CCC(C)(C)[C@@H]3[C@H](O)[C@H](OC(C)=O)[C@@]2(C)O1` [Forskolin, reference compound], in assay [1] (100 μM, positive control), the cAMP was 3455.39±406.6 and 3294.82±54.53.
The term Ki denotes a measure of affinity in units of concentration, obtained from inhibition or displacement. Turning to `CC(=O)N[C@@H](C(=O)N1CCC[C@@H]1C(=O)N[C@H](CCCCN)C(=O)NCC(=O)N[C@H](Cc1c[nH]c2ccccc12)C(=O)N[C@H](CCCNC(=N)N)C(=O)N[C@H](Cc1ccccc1)C(=O)N[C@H](Cc1c[nH]cn1)C(=O)N[C@H](CCC(=O)O)C(=O)N[C@H](C)C(=O)N[C@H](CO)C(=O)N[C@H](Cc1ccc(O)cc1)C(=O)N[C@H](CO)C(N)=O)C(C)C` [compound 807, vpkGwrfheasys] (Ac-[dV][dP][dK]G[dW][dR][dF][dH][dE][dA][dS][dY][dS]-NH2), the “cAMP levels (in words)” value in assay [1] is recorded as “reduction in cAMP accumulation”. Besides, the Ki at MC1R was 1400 ± 190 nM.
Consider `CSCC[C@@H](NC(=O)[C@@H](CCC(=O)O)NC(=O)[C@@H](C)NC(=O)[C@@H](Cc1ccccc1)NC(=O)[C@@H](CCCNC(=N)N)NC(=O)[C@@H](Cc1c[nH]c2ccccc12)NC(=O)CNC(=O)[C@@H](CCCCN)NC(=O)[C@H]1CCCN1C(=O)[C@H](NC(C)=O)C(C)C)C(=O)N[C@H](CO)C(=O)N[C@H](Cc1ccc(O)cc1)C(=O)N[C@H](CO)C(N)=O` [compound 809, vpkGwrfaemsys] (Ac-[dV][dP][dK]G[dW][dR][dF][dA][dE][dM][dS][dY][dS]-NH2), for which the “cAMP levels (in words)” value in assay [1] is “reduction in cAMP accumulation”. In addition, affinity on MC1R was put at a Ki of 1200 ± 270 nM.
In the case of `CSCC[C@@H](NC(=O)[C@@H](CCC(=O)O)NC(=O)[C@@H](Cc1c[nH]cn1)NC(=O)[C@@H](C)NC(=O)[C@@H](CCCNC(=N)N)NC(=O)[C@@H](Cc1c[nH]c2ccccc12)NC(=O)CNC(=O)[C@@H](CCCCN)NC(=O)[C@H]1CCCN1C(=O)[C@H](NC(C)=O)C(C)C)C(=O)N[C@H](CO)C(=O)N[C@H](Cc1ccc(O)cc1)C(=O)N[C@H](CO)C(N)=O` [compound 810, vpkGwrahemsys], the “cAMP levels (in words)” value in assay [1] was “no increase in cAMP activity”.
On the same count and under the same terms, the result for `CSCC[C@@H](NC(=O)[C@@H](CCC(=O)O)NC(=O)[C@@H](Cc1c[nH]cn1)NC(=O)[C@@H](Cc1ccccc1)NC(=O)[C@@H](C)NC(=O)[C@@H](Cc1c[nH]c2ccccc12)NC(=O)CNC(=O)[C@@H](CCCCN)NC(=O)[C@H]1CCCN1C(=O)[C@H](NC(C)=O)C(C)C)C(=O)N[C@H](CO)C(=O)N[C@H](Cc1ccc(O)cc1)C(=O)N[C@H](CO)C(N)=O` [compound 811, vpkGwafhemsys] (Ac-[dV][dP][dK]G[dW][dA][dF][dH][dE][dM][dS][dY][dS]-NH2) reads “no increase in cAMP activity”.
On to `CSCC[C@@H](NC(=O)[C@@H](CCC(=O)O)NC(=O)[C@@H](Cc1c[nH]cn1)NC(=O)[C@@H](Cc1ccccc1)NC(=O)[C@@H](CCCNC(=N)N)NC(=O)[C@@H](C)NC(=O)CNC(=O)[C@@H](CCCCN)NC(=O)[C@H]1CCCN1C(=O)[C@H](NC(C)=O)C(C)C)C(=O)N[C@H](CO)C(=O)N[C@H](Cc1ccc(O)cc1)C(=O)N[C@H](CO)C(N)=O` [compound 812, vpkGarfhemsys] (Ac-[dV][dP][dK]G[dA][dR][dF][dH][dE][dM][dS][dY][dS]-NH2), for which the “cAMP levels (in words)” value in assay [1] is on record as “no increase in cAMP activity”.
As a reminder, the EC50 is the midpoint of the concentration-response curve. For `CSCC[C@@H](NC(=O)[C@@H](CCC(=O)O)NC(=O)[C@@H](CCCNC(=N)N)NC(=O)[C@@H](Cc1ccccc1)NC(=O)[C@@H](CCCNC(=N)N)NC(=O)[C@@H](Cc1c[nH]c2ccccc12)NC(=O)CNC(=O)[C@@H](CCCCN)NC(=O)[C@H]1CCCN1C(=O)[C@H](NC(C)=O)C(C)C)C(=O)N[C@H](CO)C(=O)N[C@H](Cc1ccc(O)cc1)C(=O)N[C@H](CO)C(N)=O` [compound 872, vpkGwrfremsys], a half-maximal response in assay [1] (EC50) required 2000 nM. On MC1R, this compound showed an inhibition constant (Ki) of 13.5 nM.
As for `CSCC[C@@H](NC(=O)[C@@H](CCC(=O)O)NC(=O)[C@@H](Cc1c[nH]cn1)NC(=O)[C@H](Cc1ccccc1)NC(=O)[C@@H](CCCNC(=N)N)NC(=O)[C@@H](Cc1c[nH]c2ccccc12)NC(=O)CNC(=O)[C@@H](CCCCN)NC(=O)[C@H]1CCCN1C(=O)[C@H](NC(C)=O)C(C)C)C(=O)N[C@H](CO)C(=O)N[C@H](Cc1ccc(O)cc1)C(=O)N[C@H](CO)C(N)=O` [compound 884, vpkGwrFhemsys], the inhibitory constant (Ki) on MC3R is > 30000 nM; at MC5R, > 30 µM; on MC1R it was 72 nM. The “reduction in binding to MC1R, inversion of D-Phe to L-Phe in the RI sequence” value at MC1R (relative to RI-MSH) amounted to 20 fold.
Turning to `CSCC[C@H](NC(=O)[C@H](CO)NC(=O)[C@H](Cc1ccc(O)cc1)NC(=O)[C@H](CO)NC(C)=O)C(=O)N[C@@H](CCC(=O)O)C(=O)N[C@@H](Cc1c[nH]cn1)C(=O)N[C@@H](CC1CCCCC1)C(=O)N[C@@H](CCCNC(=N)N)C(=O)N[C@@H](Cc1c[nH]c2ccccc12)C(=O)NCC(=O)N[C@@H](CCCCN)C(=O)N1CCC[C@H]1C(=O)N[C@H](C(N)=O)C(C)C` [compound 892, SYSMEH(L-Cha)RWGKPV], the concentration giving a half-maximal response (EC50) in assay [1] turned out to be 21 nM. The compound also gave an inhibitory constant (Ki) on MC1R of 0.51 nM.
On to `CSCC[C@@H](NC(=O)[C@@H](CCC(=O)O)NC(=O)[C@@H](Cc1c[nH]cn1)NC(=O)[C@@H](Cc1ccccc1)NC(=O)[C@@H](CCCNC(=N)N)NC(=O)[C@H](Cc1c[nH]c2ccccc12)NC(=O)CNC(=O)[C@@H](CCCCN)NC(=O)[C@H]1CCCN1C(=O)[C@H](NC(C)=O)C(C)C)C(=O)N[C@H](CO)C(=O)N[C@H](Cc1ccc(O)cc1)C(=O)N[C@H](CO)C(N)=O` [compound 893, vpkGWrfhemsys], for which the 50% effective concentration (EC50) in assay [1] stood at 270 nM. The inhibitory constant (Ki) at MC3R was ~28000 nM; on MC5R, ~27 µM; on MC1R, 6.5 nM.
The corresponding values for `CSCC[C@@H](NC(=O)[C@@H](CCC(=O)O)NC(=O)[C@@H](Cc1c[nH]cn1)NC(=O)[C@@H](Cc1ccccc1)NC(=O)[C@H](CCCNC(=N)N)NC(=O)[C@@H](Cc1c[nH]c2ccccc12)NC(=O)CNC(=O)[C@@H](CCCCN)NC(=O)[C@H]1CCCN1C(=O)[C@H](NC(C)=O)C(C)C)C(=O)N[C@H](CO)C(=O)N[C@H](Cc1ccc(O)cc1)C(=O)N[C@H](CO)C(N)=O` [compound 894, vpkGwRfhemsys] are 212000 nM, > 30000 nM, > 30 µM and 380 nM.
The corresponding values for `CSCC[C@@H](NC(=O)[C@@H](CCC(=O)O)NC(=O)[C@H](Cc1c[nH]cn1)NC(=O)[C@@H](Cc1ccccc1)NC(=O)[C@@H](CCCNC(=N)N)NC(=O)[C@@H](Cc1c[nH]c2ccccc12)NC(=O)CNC(=O)[C@@H](CCCCN)NC(=O)[C@H]1CCCN1C(=O)[C@H](NC(C)=O)C(C)C)C(=O)N[C@H](CO)C(=O)N[C@H](Cc1ccc(O)cc1)C(=O)N[C@H](CO)C(N)=O` [compound 895, vpkGwrfHemsys] are 300 nM, ~37000 nM, ~37 µM and 19 nM.
